Data reported in BindingDB's records for patent US11648254 (Kumquat Biosciences, 2023).
pIC50: −log10 of the molar value.

The molecules below were run against T1, Son of sevenless homolog 1 (Homo sapiens, UniProt Q07889) (assay: Ras-SOS Interaction Assay).
T1 sequence (Q07889 whole entry): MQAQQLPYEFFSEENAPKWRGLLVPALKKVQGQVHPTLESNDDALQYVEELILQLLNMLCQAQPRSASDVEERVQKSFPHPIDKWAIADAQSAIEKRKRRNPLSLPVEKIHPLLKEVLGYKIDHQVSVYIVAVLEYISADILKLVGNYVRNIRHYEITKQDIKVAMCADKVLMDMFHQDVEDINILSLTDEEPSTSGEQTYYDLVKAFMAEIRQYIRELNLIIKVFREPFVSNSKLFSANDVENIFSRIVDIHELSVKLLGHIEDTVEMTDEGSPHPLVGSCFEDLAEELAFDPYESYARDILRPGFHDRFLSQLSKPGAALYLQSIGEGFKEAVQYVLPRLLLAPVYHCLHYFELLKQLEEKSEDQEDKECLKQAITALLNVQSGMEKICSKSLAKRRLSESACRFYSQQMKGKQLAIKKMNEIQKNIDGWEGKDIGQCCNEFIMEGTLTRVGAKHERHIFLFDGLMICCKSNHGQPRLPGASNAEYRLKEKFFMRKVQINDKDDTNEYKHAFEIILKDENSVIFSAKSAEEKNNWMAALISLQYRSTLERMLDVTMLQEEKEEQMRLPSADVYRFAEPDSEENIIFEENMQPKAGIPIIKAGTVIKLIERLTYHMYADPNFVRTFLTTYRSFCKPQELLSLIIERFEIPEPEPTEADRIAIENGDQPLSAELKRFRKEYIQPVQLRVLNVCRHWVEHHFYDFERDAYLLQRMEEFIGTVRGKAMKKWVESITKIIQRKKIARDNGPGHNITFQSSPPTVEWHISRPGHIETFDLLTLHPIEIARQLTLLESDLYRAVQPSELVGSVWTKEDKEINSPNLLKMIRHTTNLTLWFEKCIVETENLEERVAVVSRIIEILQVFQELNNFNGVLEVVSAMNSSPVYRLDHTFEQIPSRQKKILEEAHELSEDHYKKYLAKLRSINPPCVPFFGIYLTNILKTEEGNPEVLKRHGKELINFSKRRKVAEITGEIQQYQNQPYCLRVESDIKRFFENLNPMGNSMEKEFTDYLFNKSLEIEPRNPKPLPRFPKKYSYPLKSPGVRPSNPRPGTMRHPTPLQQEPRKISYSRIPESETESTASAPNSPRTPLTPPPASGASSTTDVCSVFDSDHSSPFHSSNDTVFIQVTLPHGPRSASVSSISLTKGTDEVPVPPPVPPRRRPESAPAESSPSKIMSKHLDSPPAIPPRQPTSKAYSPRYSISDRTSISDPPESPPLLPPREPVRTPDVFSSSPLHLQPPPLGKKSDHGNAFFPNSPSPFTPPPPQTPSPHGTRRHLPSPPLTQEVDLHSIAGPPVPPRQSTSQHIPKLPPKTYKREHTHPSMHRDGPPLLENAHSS
Source text: The ability of any compound of the present disclosure to reduce a Ras protein signaling output by, e.g., interfering or disrupting interaction (or binding) between SOS1 and a Ras protein can be assessed in vitro. For example, the equilibrium interaction of human SOS1 (hSOS1) with human wildtype Kras or K-Ras mutant (e.g., hK-Ras G12C mutant, or hK-RasG12C) can be assessed as a proxy or an indication for a subject compound's ability to inhibit SOS. Detection of such interaction is achieved by measuring homogenous time-resolved fluorescence resonance energy transfer (HTRF) from (i) a fluorescence resonance energy transfer (FRET) donor (e.g., antiGST-Europium) that is bound to GST-tagged K-RasG12C to (ii) a FRET acceptor (e.g., anti-6His-XL665) bound to a His-tagged hSOS1. […] A Ras working solution is prepared in assay buffer containing typically 10 nM of the protein construct (e.g., GST-tagged hK-RasG12C) and 2 nM of the FRET donor (e.g., antiGST-Eu(K) from Cisbio, France). A SOS1 working solution is prepared in assay buffer containing typically 10 nM of the protein construct (e.g., His-hSOS1) and 10 nM of the FRET acceptor (e.g., anti-6His-XL665 from Cisbio, France). An inhibitor control solution is prepared in assay buffer containing 10 nM of the FRET acceptor without the SOS1 protein. A fixed reaction mixture with or without test compound is transferred into a 384-well plate. Ras working solution is added to all wells of the test plate. SOS1 working solution is added to all wells except for those that are subsequently filled the inhibitor control solution.

Structure (SMILES)	pIC50
COc1nc2nc(C)nc(N[C@H](C)c3cccc(C(F)F)c3F)c2cc1C1CCN(C(=O)NC2COC2)CC1 [US11648254, Compound 116]	> 7.00
COc1nc2nc(C)nc(N[C@H](C)c3cccc(C(F)(F)F)c3C)c2cc1C1CCS(=O)(=O)CC1 [US11648254, Compound 118]	> 7.00
COc1nc2nc(C)nc(N[C@H](C)c3cccc(C(F)F)c3F)c2cc1[C@H]1C[C@@H](NC(=O)C2COC2)C1 [US11648254, Compound 125]	> 7.00
Cc1nc(N[C@H](C)c2cccc(C(F)F)c2F)c2cc(S(=O)(=O)C3CCN(C)CC3)c(Cl)nc2n1 [US11648254, Compound 132]	> 7.00
COc1nc2nc(C)nc(N[C@H](C)c3cccc(C(F)(F)C4CCCO4)c3F)c2cc1C1CCS(=O)(=O)CC1 (some centres not stated) [US11648254, Compound 148]	> 7.00
COc1nc2nc(C)nc(N[C@H](C)c3cccc(C(C)(F)F)c3F)c2cc1C1CCS(=O)(=O)CC1 [US11648254, Compound 150]	> 7.00
COCCOc1nc2nc(C)nc(N[C@H](C)c3cccc(C(F)F)c3F)c2cc1C1(C#N)CC1 [US11648254, Compound 151]	> 7.00
COc1nc2nc(C)nc(N[C@H](C)c3cccc(C(F)(F)C4CN(C)C4)c3)c2cc1N1CCS(=O)(=O)CC1 [US11648254, Compound 272]	> 7.00
Cc1nc(N[C@H](C)c2cccc(C(F)F)c2F)c2cc(C3(C#N)CC3)c(O[C@H]3CCOC3)nc2n1 [US11648254, Compound 297]	> 7.00
COc1nc2ncnc(N[C@H](C)c3cccc(C(F)(F)F)c3C)c2cc1C1CCS(=O)(=O)CC1 [US11648254, Compound 373]	> 7.00
COc1nc2ncnc(N[C@H](C)c3cccc(C(F)(F)F)c3C)c2cc1C1CCN(C2CCOCC2)CC1 [US11648254, Compound 374]	> 7.00
COc1nc2nc(C)nc(N[C@H](C)c3cccc(C(F)(F)C4CCN(C(C)C)CC4)c3F)c2cc1C1(C#N)CC1 [US11648254, Compound 377]	> 7.00
